The values that follow come from patent US20240365736A1, “COMPOSITIONS AND METHODS FOR TARGETED DEGRADATION OF PROTEINS IN A PLANT CELL” (Oerth Bio LLC, priority 2021, published 2024).

Like-named read-outs stand apart in the source and are kept apart here.

Data set [1] can be described thus: Uptake in plant cells: LCMS quantification in treated Abutilon leaves and leaf washings. Type of data set: in vivo. To be noted: for concentration at 24 h: Abutilon (plant), topical, 10 μL of 400 μM formulation per leaf. The procedure: Abutilon plants were sown in 3 inch pots and allowed to germinate and reach the two leaf stage. At the two leaf stage, plants were separated into groups of 8 plants and had one of their first true leaves labeled with a black marker. Formulation treatment samples were prepared using the following protocol. All treatment samples were prepared to 400 μM. Just before treatment, samples were emulsified and 10 μL of formulated compound was pipetted onto leaves marked for treatment in small droplets evenly across the leaf surface. Once all leaves were treated, they were allowed to sit undisturbed in a growth chamber for 24 hours. After 24 hours plants were removed from the chamber for sample collection.
Using clean scissors treated leaves were removed from the plants, and washed in 20 mL of LCMS grade acetonitrile. A sample of the wash solution was collected and set aside for analysis. The washed leaves were then stored in 7 mL centrifuge tubes and set aside. 8 treated leaves from a grouping were stored in the same sample tube. The untreated leaves were collected and stored in separate 7 mL tubes. The same was done with new growth.
The samples were stored in a −80° C. freezer for 24 hours before milling. Fresh stock of 80:20 LCMS grade acetonitrile and water was prepared as a milling solution. 3 to 4 ceramic milling beads were added to each tube along with 300 μL of milling solution. Tubes were sealed and put into a benchtop homogenizer. Samples were milled for two 12 second intervals at maximum speed with a 30 second rest period in between. Samples were then moved to a 4° C. centrifuge where they were centrifuged at 15000 rpm for 6 minutes. Supernatant was collected and put into 2 mL microcentrifuge tubes. […]
Samples were run with injections of 10 μL. Data was analyzed and calibration curves were built for known samples, using area under the curve for [M+H]. Unknown concentrations were calculated with the calibration curves to determine the amount of PROTAC® compound present at 24 hours in treated leaves and in the leaf washings.

The subject of data set [2] is Matricaria recutita, Diplotaxis tenuifolia, Agrostis spp., Poa annua, or Arabidopsis thaliana. Kind of data set: Plant phenotyping assay (herbicidal phenotypes, 96-well plates). Note: key: '+++' is highly active; '++' is moderately active; '+' is weakly active; '−' is inactive. Type of data set: in vivo. To be noted: visual score of herbicidal phenotypes after seven days; 238, 475, 950, and 1900 g ai/ha (50-400 uM).
Data set [3] has as its target plant cereblon (Cereblon ligand binding domain) (Arabidopsis thaliana, UniProt F4ISN3). Kind of data set: Ligand binding affinity by microscale thermophoresis (Monolith), labeled Cereblon ligand binding domain. As to conditions: MST, RED-tris-NTA His-tag labeled Cereblon ligand binding domain, 25 nM labeled protein; binding to plant cereblon; read-out: Plant CRBN Kd. How it is done:
The binding affinity of the described test compounds was determined using RED-tris-NTA His-tag labeled Cereblon ligand binding domain. The labeling of the Cereblon ligand binding domain was performed according to manufacturer's protocol in assay buffer (50 nM protein: 10 nM dye, 5:1 protein to dye ratio). 200 μM compound in assay buffer (10 mM HEPES pH 7.4, 300 mM NaCl, 0.1% Pluronic-147, 10% Glycerol, 5 mM DTT) was created from 10 mM compound stock in DMSO. A 16-point serial dilution was achieved by taking 10 μL of the 200 μM first well and diluting into 10 μL of assay buffer in the second well, which was diluted in 10 μL assay buffer in the third well, and so on. DMSO content of each well matched to 2%. 10 μL of 50 nM CRBN was added to each well and mixed thoroughly by pipetting. Final assay concentration of 25 nM labeled protein and highest compound concentration of 100 μM, 1% DMSO.
Samples were incubated at room temperature in the dark for five minutes, then collected in standard Monolith capillaries. Assay was performed on the Monolith NT.155Pico using automated excitation level and medium power on M.O. Control software. Analysis of MST traces and determination of dissociation constants and was conducted in M.O. Affinity Analysis software, and the results are shown in Table 2 below.

Sequence of plant cereblon (Cereblon ligand binding domain) (F4ISN3 1-547): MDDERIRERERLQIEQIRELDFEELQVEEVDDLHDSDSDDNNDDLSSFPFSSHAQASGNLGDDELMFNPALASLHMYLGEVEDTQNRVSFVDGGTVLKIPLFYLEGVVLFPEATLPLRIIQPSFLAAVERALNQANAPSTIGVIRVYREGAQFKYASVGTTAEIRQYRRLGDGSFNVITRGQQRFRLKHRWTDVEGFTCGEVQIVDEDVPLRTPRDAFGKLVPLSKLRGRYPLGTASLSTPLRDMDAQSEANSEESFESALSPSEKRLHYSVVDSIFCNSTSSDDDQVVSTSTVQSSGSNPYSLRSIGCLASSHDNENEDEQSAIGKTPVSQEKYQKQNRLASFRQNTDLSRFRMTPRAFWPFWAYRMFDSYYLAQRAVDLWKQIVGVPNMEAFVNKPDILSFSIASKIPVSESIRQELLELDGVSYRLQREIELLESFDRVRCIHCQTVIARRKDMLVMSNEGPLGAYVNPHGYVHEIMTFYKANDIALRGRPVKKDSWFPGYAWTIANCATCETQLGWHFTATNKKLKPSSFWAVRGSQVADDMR

For the compound `COc1cnc(OC)n2nc(NS(=O)(=O)c3c(OCCOCCOCCOCCOCCOCCOc4ccc5c(c4)C(=O)N(C4CCC(=O)NC4=O)C5=O)cccc3C(F)(F)F)nc12` (stereo not drawn) [Compound 4-B, N-(5,8-Dimethoxy-[1,2,4]triazolo[1,5-c]pyrimidin-2-yl)-2-((17-((2-(2,6-dioxopiperidin-3-yl)-1,3-dioxoisoindolin-5-yl)oxy)-3,6,9,12,15-pentaoxaheptadecyl)oxy)-6-(trifluoromethyl)benzenesulfonamide], the concentration at 24 h in data set [1] (leaf wash (20 mL acetonitrile), wash of treated Abutilon leaves in 20 mL acetonitrile, 24 hours after treatment, read-out: Average Concentration μM (leaf wash)) turned out to be 0.342 µM; in data set [1] (treated leaves (milled extract supernatant), Abutilon treated leaves, 24 hours after 10 μL of 400 μM formulated compound on leaf, read-out: Average Concentration μM (treated leaves)) it was 0.491 µM. Also, the Uptake by leaves entry in data set [1] (Abutilon leaves, 24 hours) was “effectively taken up by leaves”. The “Plant Activity” value in data set [2] was “+++”.

By Kd is commonly meant the concentration at which binding is half-saturated. Consider `COCCNC(=O)C1CCN(Cc2ccc(COc3cccc4c3CN(C3CCC(=O)NC3=O)C4=O)cc2)C1` [Example 18, 1-(4-(((2-((S)-2,6-dioxopiperidin-3-yl)-1-oxoisoindolin-4-yl)oxy)methyl)benzyl)-N-(2-methoxyethyl)pyrrolidine-3-carboxamide], for which the Kd in data set [3] is 100 to 1000 nM.

`COCCOCC1CCN(Cc2ccc(COc3cccc4c3CN([C@H]3CCC(=O)NC3=O)C4=O)cc2)CC1` [Example 20, (S)-3-(4-((4-((4-((2-methoxyethoxy)methyl)piperidin-1-yl)methyl)-benzyl)oxy)-1-oxoisoindolin-2-yl)piperidine-2,6-dione]: the Kd in data set [3] lay within 100 to 1000 nM.

As for `COCCOc1cc(OCc2ccc(CN3CCOCC3)cc2)c2c(c1)C(=O)N([C@H]1CCC(=O)NC1=O)C2` [Example 21, (3S)-3-[6-(2-methoxyethoxy)-4-[[4-(morpholinomethyl)-phenyl]methoxy]-1-oxo-isoindolin-2-yl]piperidine-2,6-dione], in data set [3], the Kd is less than 100 nM.

For the compound `COCCNc1cc(COc2cccc3c2CN([C@H]2CCC(=O)NC2=O)C3=O)ccc1CN1CCOCC1` [Example 22, (3S)-3-[4-[[3-(2-methoxyethylamino)-4-(morpholinomethyl)-phenyl]methoxy]-1-oxo-isoindolin-2-yl]piperidine-2,6-dione], the Kd in data set [3] is less than 100 nM.

As for `COCCNc1cc(CN2CCOCC2)ccc1COc1cccc2c1CN([C@H]1CCC(=O)NC1=O)C2=O` [Example 23, (S)-3-(4-((2-((2-methoxyethyl)amino)-4-(morpholinomethyl)-benzyl)oxy)-1-oxoisoindolin-2-yl)piperidine-2,6-dione], in data set [3], the Kd lay within 100 to 1000 nM.

`COCCNC(=O)c1cc(COc2cccc3c2CN([C@H]2CCC(=O)NC2=O)C3=O)ccc1CN1CCOCC1` [Example 24, (S)-5-(((2-(2,6-dioxopiperidin-3-yl)-1-oxoisoindolin-4-yl)oxy)methyl)-N-(2-methoxyethyl)-2-(morpholinomethyl)benzamide]: the Kd in data set [3] lay in the range of 100 to 1000 nM.

As to `O=C1CCC(N2C(=O)c3ccccc3C2=O)C(=O)N1` (stereo not drawn) [Ref 1, Thalidomide, reference compound], in data set [3], the Kd was greater than 1000 nM.

`Nc1cccc2c1C(=O)N(C1CCC(=O)NC1=O)C2=O` (stereo not drawn) [Ref 2, Pomalidomide, reference compound]: the Kd in data set [3] was greater than 1000 nM.
